Key:
[1] = tested on: A2780 Tumor Xenografts; test: LC-MS Analysis of NAD+ in A2780 Tumor Xenografts; type: in vivo, mice; details: oral gavage
Method: The purpose of this assay is to measure effects of NAMPT inhibitors on NAD^+ formation in cancer cells. LC-MS analysis of NAD^+ metabolites: nicotinamide mononucleotide (NMN), NAD^+, reduced nicotinamide adenine dinucleotide (NADH), and nicotinamide adenine dinucleotide phosphate (NADP) is performed on an HPLC system coupled to a Thermo Quantum Ultra triple quadrupole mass spectrometer operated in positive heated electrospray mode with selected reaction monitoring detection. For cell extracts, 50 μL of extract and 10 μL of 10 μM internal standard (IS) solution is transferred to a 96-well plate, dried under nitrogen and reconstituted in 50 μL of water. For tissue extracts, 20 μL of extract and 10 μL of IS solution are dried and reconstituted in 50 μL water. The IS solution contains 10 μM nicotinamide-d4 (C/D/N Isotopes), nicotinic acid-d4 (C/D/N Isotopes), nicotinamide mononucleotide-d4 (prepared by custom synthesis) and nicotinamide 1,N^6-ethenoadenine dinucleotide in methanol. The metabolites are separated on a Waters XBRIDGE™ Amide (2.1×50 mm, 3 μm) with an injection volume of 10 μL and a flow rate of 1 mL/minute using 10 mM ammonium acetate in 95% acetonitrile for mobile phase A and 10 mM ammonium acetate in 50% acetonitrile for mobile phase B. The gradient is as follows: 0 minutes, 0% B; 2.5 minutes, 70% B; 2.51 minutes, 100% B; 2.8 minutes, 100% B; 2.81 minutes, 0% B, 3.6 minutes, 0% B.
The purpose of this assay is to measure the effects of NAMPT inhibitors on NAD^+ levels in vivo as described above. Tumors are grown and treated as described below for efficacy in xenograft tumor models below (7 animals/group). Each compound is also formulated as described for efficacy in xenograft tumor models below. Vehicle is 20% of CAPTISOL® and 25 mM of phosphate buffer, pH 2 without compound. After the completion of the treatment, tumor tissues (˜50 mg each) are homogenized in an ice cold extraction buffer (1 mL of 70% methanol/water; HPLC grade for 2 minutes in a tissue lyser II (QIAGEN™) at frequency 30 Hz. The resulting preparations are centrifuged at 14000×g for 6 minutes. The supernatant fractions (500 μL each) are collected and extracted with chloroform (0.5 mL). The aqueous fractions (0.3 mL each) are collected into a 96-well plate ready for LC-MS analysis. The LC-MS analysis of NAD metabolites is performed as described above.
The purpose of this assay is to measure reduction in tumor volume in response to test compound administration. A2780 and NCI-H1155 (NSCLC) cells are grown as described above for IVTI studies. Cells are harvested and injected subcutaneously onto the rear flank of nude mice. When tumors are established (7-21 days after implant), animals are randomized and grouped into control and test groups (7 animals/group). The test compound is formulated in 20% of CAPTISOL® and 25 mM of phosphate buffer, pH 2. Test compound and vehicle (20% of CAPTISOL® and 25 mM of phosphate buffer, pH 2 without compound) are administered by oral gavage. Tumor response is determined by tumor volume measurement (caliper) performed twice a week during the course of treatment and reported as percent of tumor volume of each treatment group divided by tumor volume of the vehicle control group. […]

[2] = tested on: A2780 cells; test: A2780 Proliferation Assay ±NAM (Nicotinamide); type: cell-based; details: Homo sapiens, A2780, 72 h, 10 mM nicotinamide added to the growth medium, read-out: IC50 (proliferation of A2780 cells with 10 mM nicotinamide)
Method: The purpose of this assay is to measure the ability of a compound to inhibit proliferation of A2780 cells (the NCI-DCTD Tumor repository) dependent on the NAMPT-mediated NAD^+ formation in the presence or absence of higher concentrations of NAM (10 mM) in vitro. The A2780 cell proliferation assay uses assay-ready frozen cells. To prepare assay-ready frozen A2780 cells, A2780 cells, an ovarian cancer cell line, are cultured in growth media containing RPMI 1640 (Gibco 30-2001) supplemented with 10% FBS, in T-150 flasks for 3-4 days. Cells are then treated with 4 mL of 0.25% (v/v) trypsin for 1 minute (Hyclone SH30042). Trypsin-treated cells are then diluted with 10 mL of growth media, and the cell slurry is gently mixed and then decanted to a centrifuge tube. Cells are counted and then pelleted by centrifugation at 1400 rpm for 5 minutes. After centrifugation the supernatant is removed and the cell pellets are re-suspended in GIBCO® RECOVERY™ Cell Culture Freezing Medium (Invitrogen 12648-010) at 2-5×10^6 cells/mL and then aliquoted at 1 mL volumes into cryovials. Cryovials are stored initially at −80° C. for 16 hours, and then transferred to liquid nitrogen for long term storage.
One day before the planned initiation of compound treatment portion of the assay, one vial of assay ready frozen cells is thawed, and the cells are washed with 50 mL of growth medium. Cells are counted and then diluted to 2.8×10^4 cells/mL and then plated at a rate of 2500 cells/well (90 μL per well) to BD Poly-D-Lysine, 96 well black plates (BD Biocoat 35-4640). Plates are then covered and incubated overnight under 5% CO2 at 37° C. The next day in a separate plate (V bottom Nunc 249946), a ten-point compound dilution series for each compound is prepared in growth media containing 2% DMSO (v/v, 0.2% final) with or without 100 mM NAM (10 mM final). Then 10 μL of compounds after a ten-point series dilution from either 2 or 0.1 μM (depending potency of each compound) to 50 pM or 5 pM (final) are added to the wells of the cell plates. Cell plates are covered and incubated for 72 hours under 5% CO2 at 37° C.
On the day of the viability assessment, one vial of GF-AFC substrate (CELL TITER-FLUOR™ Cell Viability Assay Kit, Promega G6081) is vortexed and the substrate is transferred to one vial of thawed CELL TITER-FLUOR™ Assay Buffer. The resulting CELL TITER-FLUOR™ reagent is then vortexed well to thoroughly dissolve the substrate. The CELL TITER-FLUOR™ reagent is then diluted (1:2) in growth medium and 50 μL of diluted CELL TITER-FLUOR™ reagent is added to each well of the cell plate. The cell plate is covered and incubated under 5% CO2 at 37° C. for 1-3 hours. Finally the cell plates are removed from the incubator and the well fluorescence is measured on an Envision® Multilabel Reader (Perkin Elmer, λeX 355/λem 495). Fluorescence from compound treated wells is compared to the no cell and no compound treatment control wells to calculate percent inhibition. The percent inhibition and ten-point compound concentration data is fit to a four-parameter logistic equation using ACTIVITYBASE 4.0 Equation 205. Each compound is tested 2-4 times in this assay.

Structure (SMILES)	NAD levels (pmol/mg tissue) ([1]; 5 mg/kg (BID))	NAD levels (pmol/mg tissue) ([1]; 10 mg/kg (BID))	NAD levels (pmol/mg tissue) ([1]; 20 mg/kg (BID))	IC50 [2]	NAD levels (pmol/mg tissue) ([1]; 8 mg/kg (BID))	NAD levels (pmol/mg tissue) ([1]; 16 mg/kg (BID))	NAD levels (pmol/mg tissue) ([1]; 32 mg/kg (BID))
CC(C)(O)CS(=O)(=O)Nc1ccc2c(c1)CCN(C(=O)COc1cccnc1)C2 [Example 1, 2-Hydroxy-2-methyl-N-[2-[2-(3-pyridyloxy)acetyl]-3,4-dihydro-1H-isoquinolin-6-yl]propane-1-sulfonamide]	5.04 pmol/mg tissue	2.55 pmol/mg tissue	3.29 pmol/mg tissue	> 100 nM	–	–	–
COCCS(=O)(=O)Nc1ccc2c(c1)CCN(C(=O)COc1cccnc1)C2 [Example 2, 2-Methoxy-N-[2-[2-(3-pyridyloxy)acetyl]-3,4-dihydro-1H-isoquinolin-6-yl]ethanesulfonamide]	–	–	–	> 100 nM	3.97 pmol/mg tissue	6.52 pmol/mg tissue	6.38 pmol/mg tissue

— patent US20160229835A1, “NOVEL PYRIDYLOXYACETYL TETRAHYDROISOQUINOLINE COMPOUNDS USEFUL AS NAMPT INHIBITORS” (ELI LILLY AND COMPANY, priority 2013, published 2016)
